The values that follow come from article PMC6254837, “Investigating Biological Activity Spectrum for Novel Styrylquinazoline Analogues” (Molecules, 2009).

In brackets after ≈: the same amount, converted by molar mass. Several values for one entry are separate records, joined by “and”; a condition that tells them apart may be missing. Equal entries are not always repeated. Where two headings read alike, the source gives them in different places.

The nature of data set [1]: Lipophilicity HPLC determination (capacity factor k / calculated log k). The following applies: RP-HPLC, C18, MeOH/H2O 55:45, non-buffered, isocratic. Type of data set: physicochemical. The text has this:
Some groups have used a C18 chromatographic column with methanol-water mobile phases to obtain log kw, i.e., the retention factor extrapolated to 0% organic modifier, as an alternative to log P [50]. The log kw is obtained by performing several measurements with various ratios of water/organic solvent. Nevertheless determination of log kw has some disadvantages in that it is time consuming due to the various measurements that need to be undertaken before calculation of log kw. The main reason for the measurement is that it is more convenient to perform a systematic study of log k of various heteroaromatic compounds using mobile phases containing around 50% methanol due to various intramolecular interactions between heteroatoms and substituents. Therefore this study was performed using methanol/water (55:45) as the mobile phase. The conditions (non-buffered mobile phase) were chosen with respect to conditions of biological evaluations, which are performed mostly under neutral conditions (pH ~ 7). The lipophilicity data can be strongly influenced by intramolecular interactions under the applied chromatographic conditions which were investigated in the paper. The HPLC separation module Waters Alliance 2695 XE and Waters Photodiode Array Detector 2996 (Waters Corp., Milford, MA, U.S.A.) were used. The chromatographic column Symmetry® C18 5 μm, 4.6 × 250 mm, Part No. WAT054275, (Waters Corp., Milford, MA, U.S.A.) was used. The HPLC separation process was monitored by Millennium32® Chromatography Manager Software, Waters 2004 (Waters Corp.). The mixture of MeOH p.a. (55.0%) and H2O-HPLC – Mili-Q Grade (45.0%) was used as a mobile phase. The total flow of the column was 0.9 mL/min, injection 30 μL, column temperature 30 °C and sample temperature 10 °C. The detection wavelength 210 nm was chosen. The KI methanolic solution was used for the dead time (tD) determination. Retention times (tR) were measured in minutes. The capacity factors k were calculated using the Millennium32® Chromatography Manager Software according to formula k = (tR - tD)/tD, where tR is the retention time of the solute, whereas tD denotes the dead time obtained via an unretained analyte.

Data set [2] deals with photosynthetic electron transport (PET) in spinach chloroplasts. As to the kind of experiment: Inhibition of photosynthetic electron transport (PET) in spinach chloroplasts, DCPIP photoreduction. Type of data set: biochemical, Spinacia oleracea L. As to conditions: phosphate buffer pH 7.2, DMSO up to 4%. As for the experimental part:
Chloroplasts were prepared from spinach (Spinacia oleracea L.) according to Masarovicova and Kralova. The inhibition of photosynthetic electron transport (PET) in spinach chloroplasts was determined spectrophotometrically (Genesys 6, Thermo Scientific, U.S.A.) using an artificial electron acceptor 2,6-dichlorophenol-indophenol (DCIPP) according to Kralova et al. and the rate of photosynthetic electron transport was monitored as a photoreduction of DCPIP. The measurements were carried out in phosphate buffer (0.02 mol/L, pH 7.2) containing sucrose (0.4 mol/L), MgCl2 (0.005 mol/L) and NaCl (0.015 mol/L). The chlorophyll content was 30 mg/L in these experiments and the samples were irradiated (~100 W/m^2) from 10 cm distance with a halogen lamp (250 W) using a 4 cm water filter to prevent warming of the samples (suspension temperature 22 °C). The studied compounds were dissolved in DMSO due to their limited water solubility. […] The inhibitory efficiency of the studied compounds was expressed by IC50 values, i.e. by molar concentration of the compounds causing 50% decrease in the oxygen evolution rate relative to the untreated control.

The subject of data set [3] is Mycobacterium avium complex CIT19/06. As to the kind of experiment: In vitro antimycobacterial evaluation (alamarBlue, 96 well plate). The class given is cell-based. As to conditions: 120 h, read-out: MIC/IC90 M. avium complex. A general note: Resazurin is reduced to fluorescent resorufin, in cell work by metabolically active cells.
A further data set has as its system M. absessus CIT21/06. The data set is described as above. The class given is cell-based. The following applies: read-out: MIC/IC90 M. absessus.
A further data set deals with M. kansasii CIT11/06. The data set is described as above. The class given is cell-based. The following applies: Mycobacterium kansasii, CIT11/06, 120 h, read-out: MIC/IC90 M. kansasii.
For a further data set, the system named is M. smegmatis MC2155. The description is as above. The class given is cell-based. The following applies: Mycolicibacterium smegmatis.
Data set [4] has as its system photosynthetic electron transport (PET) in spinach chloroplasts. More on the design: method as in earlier work. The following applies: standard, read-out: PET inhibition IC50; cited from earlier work.
Where [5] appears, read: Middlebrook broth, 37 °C five days.
The mark [6] stands for this setting: Middlebrook broth, 37 °C overnight.
[7] abbreviates: MC2155, Middlebrook broth, 37 °C overnight, read-out: MIC/IC90 M. smegmatis.

A word on the IC50: it is the midpoint of a concentration-inhibition curve. Consider `O=c1[nH]c(/C=C/c2ccc(Br)cc2)nc2ccccc12` [Compound 3i, 2-[(E)-2-(4-Bromophenyl)vinyl]quinazolin-4(3H)-one], for which, in data set [1], the log k was 1.5927. Further, the IC50 in data set [2] turned out to be 665 µM. For the same molecule, the MIC (in data set [3] (setting [5]); in the data set on M. absessus CIT21/06 (setting [6]); in the data set with M. kansasii CIT11/06 (setting [5]); in the data set with M. smegmatis MC2155 (setting [7])) was greater than 100 µg/mL throughout.
For `O=c1[nH]c(/C=C/c2ccccc2)nc2ccccc12` [Compound 3a, 2-(E)-Styrylquinazolin-4(3H)-one], the log k in data set [1] is 1.1148. For the same molecule, the MIC (in data set [3] (setting [5]); in the data set on M. absessus CIT21/06 (setting [6]); in the data set with M. kansasii CIT11/06 (setting [5]); in the data set on M. smegmatis MC2155 (setting [7])) was greater than 300 µg/mL in each case.
On to `O=c1[nH]c(/C=C/c2ccccc2Br)nc2ccccc12` [Compound 3g, 2-[(E)-2-(2-Bromophenyl)vinyl]quinazolin-4(3H)-one], for which, in data set [1], the log k is given as 1.4830. Moreover, the MIC (in data set [3] (setting [5]); with M. absessus CIT21/06 (setting [6]); in the data set with M. kansasii CIT11/06 (setting [5]); with M. smegmatis MC2155 (setting [7])) was greater than 100 µg/mL each time.
With `O=Cc1ccc(/C=C/c2nc3ccccc3c(=O)[nH]2)cc1` [Compound 3j, 2-[(E)-2-(4-Carbaldehydephenyl)vinyl]quinazolin-4(3H)-one], the log k in data set [1] is reported as 0.8005.
`COc1ccc(/C=C/c2nc3ccccc3c(=O)[nH]2)c(OC)c1` [Compound 3e, 2-[(E)-2-(2,4-Dimethoxyphenyl)vinyl]quinazolin-4(3H)-one]: the log k in data set [1] is 1.1982. In data set [2], this molecule displayed a half-maximal inhibitory concentration (IC50) of 391 µM. In addition, the MIC in data set [3] (setting [5]) is 80 µg/mL (≈ 259 µM); in the data set with M. absessus CIT21/06 (setting [6]), 80 µg/mL (≈ 259 µM); in the data set on M. kansasii CIT11/06 (setting [5]), 20 µg/mL (≈ 64.9 µM); with M. smegmatis MC2155 (setting [7]), greater than 100 µg/mL.
Consider `O=c1[nH]c(/C=C/c2cccc(Cl)c2)nc2ccccc12` [Compound 3f, 2-[(E)-2-(3-Chlorophenyl)vinyl]quinazolin-4(3H)-one], for which, in data set [1], the log k is on record as 1.5059. This molecule also registered an IC50 in data set [2] of 1030 µM. Besides, the MIC (in data set [3] (setting [5]); in the data set on M. absessus CIT21/06 (setting [6]); in the data set with M. kansasii CIT11/06 (setting [5]); with M. smegmatis MC2155 (setting [7])) was greater than 300 µg/mL throughout.
Take `Clc1nc(/C=C/c2ccccc2)nc2ccccc12` [Compound 4a, 4-Chloro-2-(E)-styrylquinazoline]: in data set [1], the log k was 1.1088. In data set [2], this molecule came in with an IC50 of 285 µM. For the same molecule, the MIC (in data set [3] (setting [5]); in the data set with M. absessus CIT21/06 (setting [6]); in the data set on M. kansasii CIT11/06 (setting [5]); in the data set with M. smegmatis MC2155 (setting [7])) was greater than 100 µg/mL throughout.
As to `O=c1[nH]c(/C=C/c2cccc(Br)c2)nc2ccccc12` [Compound 3h, 2-[(E)-2-(3-Bromophenyl)vinyl]quinazolin-4(3H)-one], the log k in data set [1] is 1.5904. In data set [2], it took 561 µM to reach half-maximal inhibition (IC50). The MIC (in data set [3] (setting [5]); in the data set with M. absessus CIT21/06 (setting [6]); in the data set on M. kansasii CIT11/06 (setting [5]); in the data set with M. smegmatis MC2155 (setting [7])) was greater than 100 µg/mL in each case.
With `CN(C)C(=O)Nc1ccc(Cl)c(Cl)c1` [DCMU, 3-(3,4-dichlorophenyl)-1,1-dimethylurea], the IC50 in data set [4] was ~1.9 µM and 1.9 µM.
On to `O=c1[nH]c(/C=C/c2ccc(O)c(O)c2O)nc2ccccc12` [Compound 3k, 2-[(E)-2-(2,3,4-Trihydroxyphenyl)vinyl]quinazolin-4(3H)-one], for which the log k in data set [1] is 0.5510.
For the molecule `COc1ccccc1/C=C/c1nc(Cl)c2ccccc2n1` [Compound 4b, 4-Chloro-2-[(E)-2-(2-methoxyphenyl)vinyl]quinazoline], the log k in data set [1] is listed as 1.1497. Moreover, the MIC is 80 µg/mL (≈ 270 µM) in data set [3] (setting [5]), 80 µg/mL (≈ 270 µM) in the data set with M. absessus CIT21/06 (setting [6]), 60 µg/mL (≈ 202 µM) in the data set with M. kansasii CIT11/06 (setting [5]) and greater than 100 µg/mL in the data set with M. smegmatis MC2155 (setting [7]).
Turning to `Cc1nc2ccccc2c(=O)n1CCO` [Compound 2, 3-(2-Hydroxyethyl)-2-methylquinazolin-4(3H)-one], in data set [1], the log k was 0.7047. This molecule also had a half-inhibitory concentration (IC50) in data set [2] of 362 µM. Moreover, the MIC (in data set [3] (setting [5]); with M. absessus CIT21/06 (setting [6]); in the data set with M. kansasii CIT11/06 (setting [5]); in the data set with M. smegmatis MC2155 (setting [7])) was greater than 300 µg/mL in each case.
For `Cc1nc2ccccc2c(=O)[nH]1` [Compound 1, 2-Methylquinazolin-4(3H)-one], the log k in data set [1] was 0.1170. For the same molecule, the MIC in data set [3] is greater than 300 µg/mL; with M. absessus CIT21/06, greater than 300 µg/mL; in the data set on M. kansasii CIT11/06, greater than 300 µg/mL; in the data set on M. smegmatis MC2155 (MC2155, read-out: MIC/IC90 M. smegmatis), greater than 300 µg/mL.
`COc1cccc(/C=C/c2nc3ccccc3c(=O)[nH]2)c1` [Compound 3c, 2-[(E)-2-(3-Methoxyphenyl)vinyl]quinazolin-4(3H)-one]: the log k in data set [1] is 1.1837. For the same molecule, the MIC (in data set [3] (setting [5]); in the data set on M. absessus CIT21/06 (setting [6]); in the data set on M. kansasii CIT11/06 (setting [5]); in the data set with M. smegmatis MC2155 (setting [7])) was greater than 100 µg/mL throughout.
As to `COc1ccc(/C=C/c2nc(Cl)c3ccccc3n2)c(OC)c1` [Compound 4e, 4-Chloro-2-[(E)-2-(2,4-dimethoxyphenyl)vinyl]quinazoline], the log k in data set [1] is 1.1953. Inhibition in data set [2] was half-maximal at 508 µM (IC50). The MIC (in data set [3] (setting [5]); in the data set with M. absessus CIT21/06 (setting [6]); in the data set with M. kansasii CIT11/06 (setting [5]); with M. smegmatis MC2155 (setting [7])) was greater than 100 µg/mL each time.
Take `COc1ccccc1/C=C/c1nc2ccccc2c(=O)[nH]1` [Compound 3b, 2-[(E)-2-(2-Methoxyphenyl)vinyl]quinazolin-4(3H)-one]: the log k in data set [1] is given as 1.1509. Also, the MIC (in data set [3] (setting [5]); in the data set on M. absessus CIT21/06 (setting [6]); in the data set on M. kansasii CIT11/06 (setting [5]); with M. smegmatis MC2155 (setting [7])) was greater than 100 µg/mL in each case.
`NNC(=O)c1ccncc1` [INH, isoniazid, reference compound]: the MIC in data set [3] (setting [5]) was less than 10 µg/mL; in the data set on M. absessus CIT21/06 (setting [6]) it was greater than 100 µg/mL; with M. kansasii CIT11/06 (setting [5]), less than 10 µg/mL; in the data set with M. smegmatis MC2155 (setting [7]), 39 µg/mL (≈ 284 µM).
Take `COc1ccc(/C=C/c2nc(Cl)c3ccccc3n2)cc1` [Compound 4d, 4-Chloro-2-[(E)-2-(4-methoxyphenyl)vinyl]quinazoline]: the log k in data set [1] is 1.1337. The half-maximal inhibitory concentration (IC50) in data set [2] worked out at 390 µM. Also, the MIC (in data set [3] (setting [5]); with M. absessus CIT21/06 (setting [6]); in the data set with M. kansasii CIT11/06 (setting [5]); in the data set with M. smegmatis MC2155 (setting [7])) was greater than 100 µg/mL in each case.
Regarding `COc1ccc(/C=C/c2nc3ccccc3c(=O)[nH]2)cc1` [Compound 3d, 2-[(E)-2-(4-Methoxyphenyl)vinyl]quinazolin-4(3H)-one], the log k in data set [1] is 1.1351. The IC50 in data set [2] was 693 µM. For the same molecule, the MIC (in data set [3] (setting [5]); with M. absessus CIT21/06 (setting [6]); with M. kansasii CIT11/06 (setting [5]); in the data set with M. smegmatis MC2155 (setting [7])) was greater than 100 µg/mL throughout.
As to `COc1cccc(/C=C/c2nc(Cl)c3ccccc3n2)c1` [Compound 4c, 4-Chloro-2-[(E)-2-(3-methoxyphenyl)vinyl]quinazoline], the log k in data set [1] was 1.1827. For the same molecule, the IC50 in data set [2] is 303 µM. Besides, the MIC in data set [3] (setting [5]) is greater than 100 µg/mL; with M. absessus CIT21/06 (setting [6]), greater than 100 µg/mL; with M. kansasii CIT11/06 (setting [5]), 60 µg/mL (≈ 202 µM); with M. smegmatis MC2155 (setting [7]) it was greater than 100 µg/mL.
